{
  "source": "paper PMC11123956",
  "about": "“Nobiletin Stimulates Adrenal Hormones and Modulates the Circadian Clock in Mice” (Nutrients, 2024)",
  "key": {"[1]": {"assay": "Blood glucose after i.p. injection", "format": "in vivo, mice", "details": "100 mg/kg, after 4 h fasting, 0-90 min", "experimental": "Male C57BL/6J mice (7 weeks old) were purchased from Charles River Japan (Kanagawa, Japan) and used for the serum hormone assay and RT-PCR. Male ICR mice were purchased from Tokyo Laboratory Animals Science Co., Ltd. (Tokyo, Japan), and female PERIOD2::LUCIFERASE (PER2::LUC) knock-in mice (ICR background) bred at Waseda University were used for blood glucose measurements and in vivo imaging assays, respectively. The mice were all housed under conditions of controlled temperature (23 °C ± 3 °C), humidity (50% ± 20%), and lighting (lights on from 07:00 to 19:00 at Taisho Pharmaceutical Co., Ltd. or from 08:00 to 20:00 at Waseda University). In the 24 h cycle, Zeitgeber time 0 (ZT0) was designated as the time when the lights were turned on, and ZT12 was designated as the time when the lights were turned off. […]\nSerum corticosterone, adrenaline, and adreno-corticotropic hormone (ACTH) levels, and corticotropin releasing factor (CRF) in the hypothalamus, were measured using enzyme-linked immunosorbent assay (ELISA). […] Blood glucose levels were measured using a Glucose PILOT kit (Aventir Biotech, LLC, Carlsbad, CA, USA). The range of blood glucose that could be precisely measured with the kit was 20–600 mg/dL. […]"}, "PDE3": {"test_system": "PDE3", "set-up": "method as in PMID 19906817", "details": "cited from earlier work"}, "serum ACTH": {"test_system": "serum ACTH", "assay": "Serum ACTH ELISA", "format": "in vivo, mice", "details": "an hour after injection (50 or 100 mg/kg)", "experimental": "Serum corticosterone, adrenaline, and adreno-corticotropic hormone (ACTH) levels, and corticotropin releasing factor (CRF) in the hypothalamus, were measured using enzyme-linked immunosorbent assay (ELISA). A corticosterone ELISA kit (Cayman Chemical Company, Ann Arbor, MI, USA), an adrenaline ELISA kit (Abcam, Cambridge, UK), an ACTH ELISA kit (Phoenix Pharmaceuticals Inc., Burlingame, CA, USA), and a CRF ELISA kit (Yanaihara Institute Inc., Shizuoka, Japan) were used. Assays were conducted according to the manufacturer’s instructions. Blood samples were collected from the mice at ZT4, 5, and 7 after the administration of nobiletin at ZT3 (10 mg/kg and 100 mg/kg, in Figure 3A,B). Blood glucose levels were measured using a Glucose PILOT kit (Aventir Biotech, LLC, Carlsbad, CA, USA). The range of blood glucose that could be precisely measured with the kit was 20–600 mg/dL. Before measurement, we administered nobiletin (100 mg/kg body weight) to the mice, after 4 h fasting. Blood was collected from the tail vein of each mouse for measurement. The measurements were conducted at 0, 15, 30, 45, 60, and 90 min after reagent administration in Figure 3C. Samples were collected one hour after nobiletin treatment (50 or 100 mg/kg; Figure 3D,E), or 2 or 4 h after treatment in Figure 3F. […]"}, "PDE10A2": {"molecular_target": "T1, PDE10A2 (Homo sapiens, UniProt Q9Y233)", "T1 construct": "purchased Eurofins Panlabs Discovery Services Taiwan, Ltd. (contract assay); host or cells: insect Sf9 cells", "T1 sequence (Q9Y233 267-1055)": "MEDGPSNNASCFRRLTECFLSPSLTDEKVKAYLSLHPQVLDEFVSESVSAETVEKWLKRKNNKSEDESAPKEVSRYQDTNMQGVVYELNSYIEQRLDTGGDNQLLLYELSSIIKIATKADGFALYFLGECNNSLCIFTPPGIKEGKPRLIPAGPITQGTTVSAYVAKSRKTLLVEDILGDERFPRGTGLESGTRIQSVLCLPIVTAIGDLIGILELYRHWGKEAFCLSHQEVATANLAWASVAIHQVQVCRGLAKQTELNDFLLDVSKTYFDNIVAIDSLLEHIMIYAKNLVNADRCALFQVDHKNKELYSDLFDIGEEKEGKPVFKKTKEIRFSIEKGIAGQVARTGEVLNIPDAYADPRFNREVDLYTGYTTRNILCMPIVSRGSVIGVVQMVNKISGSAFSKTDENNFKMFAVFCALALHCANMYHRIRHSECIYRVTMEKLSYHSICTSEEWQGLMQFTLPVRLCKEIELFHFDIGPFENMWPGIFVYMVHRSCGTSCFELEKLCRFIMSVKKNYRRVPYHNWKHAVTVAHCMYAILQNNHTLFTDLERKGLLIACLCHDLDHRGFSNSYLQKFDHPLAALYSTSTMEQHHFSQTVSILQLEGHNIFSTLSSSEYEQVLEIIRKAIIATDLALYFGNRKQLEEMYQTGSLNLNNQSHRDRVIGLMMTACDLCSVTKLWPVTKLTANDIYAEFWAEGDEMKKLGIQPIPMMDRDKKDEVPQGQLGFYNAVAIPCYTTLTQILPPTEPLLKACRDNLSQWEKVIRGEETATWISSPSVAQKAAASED", "assay": "PDE enzyme (kinase) assay, PDE10A2", "format": "biochemical", "experimental": "Enzyme assays for various subtypes of PDE (Table 1 and Figure 4) were conducted by Eurofins Panlabs Discovery Services Taiwan, Ltd. (New Taipei City, Taiwan). In the assays, five or six concentrations of nobiletin over five or six orders of magnitude were examined in experiments conducted in duplicate to determine the IC50 (concentration of nobiletin exerting half-maximal inhibition of control-specific activity). IC50 values were determined by nonlinear least squares regression analysis using MathIQTM (ID Business Solutions Ltd., Woking, UK). FAM-cAMP, FAM-cGMP (0.1 μM), and 100 μM [^3H]cGMP + cGMP were used for the substrate in the human recombinant insect Sf9 cells or Bovine retinal rod outer segments depending on the PDE subtype. The spectrofluorometric quantitation of fluorescein-AMP-IMAP, fluorescein-GMP-IMAP, or [^3H] guanosine was used depending on the PDE subtype. A known […] of each PDE was used as the positive control.\nFigure 4 PDE kinase assays and the acute clock gene expression changes by PDE4 inhibitor or ROR α/γ agonist. (A) Inhibitory effect of nobiletin on PDE4A1, 4B1, and 10A2. Various concentrations of nobiletin (1–100 μM) were used for IC50 determination (Table 1). Values represent the mean of two experiments. Positive controls were rolipram for PDE4A1 and 4B1 and papaverine for PDE10A2. […]"}},
  "data": [
    {"compound": "COc1ccc(-c2cc(=O)c3c(OC)c(OC)c(OC)c(OC)c3o2)cc1OC", "note": "[nobiletin]", "values": [
      {"measurement": "blood glucose levels", "setting": "[1]", "result": "increased"},
      {"measurement": "IC50", "setting": "PDE3", "result": 10.4, "unit": "µM"},
      {"measurement": "serum ACTH", "setting": "serum ACTH", "result": "did not change significantly"},
      {"measurement": "IC50", "setting": "PDE10A2; IC50, PDE10A2, bound stated in the discussion", "result": "≤ 6.03", "unit": "µM"},
      {"measurement": "IC50", "setting": "PDE10A2; IC50 Dose, PDE10A2, duplicate", "result": 1.51, "unit": "µM"}
    ]}
  ]
}
